Test results taken from article PMC7100991 (PLoS Pathogens, 2020).

Target: T1, Fusarium graminearum myosin I (FgMyoI) (Fusarium graminearum, UniProt I1RCT2)
T1 construct: gene FGRAMPH1_01T03465
Experiment: biochemical

## CCOC(=O)/C(C#N)=C(\N)c1ccccc1 [phenamacril]
  IC50: 360 nM
